# Values quoted from earlier work, collected in patent US20100143322A1, “USE OF INHIBITORS OF N-METHYL TRANSFERASES FOR THE THERAPY OF PARKINSON'S DISEASE” (priority 2005, published 2010).
# Target: T1, phenylethanolamine N-methyl transferase (PNMT) (Homo sapiens, UniProt P11086)
# T1 sequence (P11086 1-282): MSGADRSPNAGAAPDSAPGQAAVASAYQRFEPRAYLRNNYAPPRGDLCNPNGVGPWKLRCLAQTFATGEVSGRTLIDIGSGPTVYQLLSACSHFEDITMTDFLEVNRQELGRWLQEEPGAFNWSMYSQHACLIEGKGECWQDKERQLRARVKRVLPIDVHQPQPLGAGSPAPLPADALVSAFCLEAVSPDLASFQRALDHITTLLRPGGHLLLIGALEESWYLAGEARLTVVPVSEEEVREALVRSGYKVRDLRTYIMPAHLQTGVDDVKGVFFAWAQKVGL
# Settings: less than 2 mg of Ala-Cys-Cys, isolated from rabbit liver and purified
substance,measurement,value
Ala-Cys-Cys,inhibition of the PNMT in the PNMT test,> 90%
